Results reported in patent publication US20250074911A1, “MACROCYCLIC BTK INHIBITORS” (Crossfire Oncology Holding B.V., priority 2021, published 2025).
Where “and” joins values, the source holds several entries; their conditions need not be identical. Identical values can stand only once.

What was measured:
[1] = target: full-length wt-BTK enzyme (Homo sapiens (Human), UniProt Q06187); test: Biochemical kinase assay wt-BTK (IMAP)
Outline: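 IMAP fluorescence polarization assay: 1.2 nM enzyme pre-incubated 1 h with compound at room temperature, then 50 nM fluorescein-labeled MBP-derived peptide and 4 μM ATP added. Reaction ran 2 h at room temperature in the dark before quenching with IMAP binding solution.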

[2] = target: full-length BTK C481S enzyme (Homo sapiens (Human), UniProt Q06187, C481S); test: Biochemical kinase assay BTK C481S (IMAP)
Sequence of full-length BTK C481S enzyme (Q06187 whole entry C481S): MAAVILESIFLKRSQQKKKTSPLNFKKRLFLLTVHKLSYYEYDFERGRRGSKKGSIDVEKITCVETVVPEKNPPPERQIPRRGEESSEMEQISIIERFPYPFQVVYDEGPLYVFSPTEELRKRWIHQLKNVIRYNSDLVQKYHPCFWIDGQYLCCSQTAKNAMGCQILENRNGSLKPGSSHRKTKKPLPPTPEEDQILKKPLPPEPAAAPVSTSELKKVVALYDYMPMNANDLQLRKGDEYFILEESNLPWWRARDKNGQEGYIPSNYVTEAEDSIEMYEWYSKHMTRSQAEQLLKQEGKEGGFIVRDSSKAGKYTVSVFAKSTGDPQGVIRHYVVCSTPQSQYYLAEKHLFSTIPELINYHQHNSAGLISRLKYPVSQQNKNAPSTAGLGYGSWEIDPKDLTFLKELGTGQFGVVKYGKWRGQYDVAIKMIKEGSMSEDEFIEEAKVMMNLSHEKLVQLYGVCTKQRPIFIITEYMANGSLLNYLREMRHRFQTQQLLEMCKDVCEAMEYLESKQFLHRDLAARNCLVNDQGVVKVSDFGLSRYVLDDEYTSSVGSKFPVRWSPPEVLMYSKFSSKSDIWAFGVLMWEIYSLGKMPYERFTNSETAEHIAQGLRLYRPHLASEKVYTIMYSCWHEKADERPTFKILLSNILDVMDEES
Outline: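 Full-length BTK C481S (1.2 nM) was pre-incubated with compound for 1 h at room temperature in the dark, then reacted with fluorescein-labelled MBP-derived peptide (50 nM) and ATP (7 μM) for 2 h. Reactions were quenched with IMAP binding solution, and IC50 values were derived from fluorescence polarization.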

[3] = system: wt-REC-1 mantle cell lymphoma cells; test: Cell proliferation assay wt-REC-1 (ATPlite, 72 hours); type: cell-based; conditions: 72 h; read-out: IC50 wt-REC-1
Outline: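 Luminescent viability read over 72 h, start-of-incubation signal recorded separately to separate growth from cell death. Percentage growth referenced to compound-free 0.3% DMSO wells; IC50 from 4-parameter logistic fit.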

REC-1 T474I cell lines = test: Cell proliferation assay REC-1 BTK T474I knock-in cells (ATPlite, 72 hours); type: cell-based; conditions: Homo sapiens, Rec1; 72 hours; read-out: IC50 REC-1 T474I
Outline: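 REC-1 cells carrying CRISPR knock-in mutant BTK, single-cell cloned and sequence-confirmed, were exposed to compound for 72 h and read by ATPlite luminescence. Percentage growth was calculated against the signal at the start of incubation and against untreated 0.3% DMSO wells as maximum growth.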

wt-BTK = wt-BTK (Homo sapiens (Human), UniProt Q06187); test: Binding kinetics measurements (Surface Plasmon Resonance) on wt-BTK; conditions: for Kd: binding affinity by Surface Plasmon Resonance (SPR); for Tau (h) wt-BTK (Act): target residence time, SPR
Sequence of wt-BTK (Q06187 whole entry): as the sequence (Q06187 whole entry C481S) above, with S481C counted along it
Outline: (§1)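 SPR on biotinylated wild-type or mutant human BTK captured on streptavidin chips (immobilized at 4° C, assay at 22° C), buffer with 1% DMSO, 30 μl/min. Single-cycle kinetics, five injections of 3.16-316 nM compound; double-referenced sensorgrams fitted (two-state model for induced fit), duplicate ka, kd, KD geometrically averaged.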

BTK C481S = BTK C481S (Homo sapiens (Human), UniProt Q06187, C481S); test: Binding kinetics measurements (Surface Plasmon Resonance) on BTK C481S; conditions: for Kd: binding affinity by Surface Plasmon Resonance (SPR); for Tau (h) BTK C418S (Act): target residence time for BTK C481S, SPR
Sequence of BTK C481S (Q06187 whole entry C481S): as the sequence (Q06187 whole entry C481S) above
Outline: as §1

BTK T316A = BTK T316A (Homo sapiens (Human), UniProt Q06187, T316A); test: Binding kinetics measurements (Surface Plasmon Resonance) on BTK T316A; conditions: for Kd: binding affinity by Surface Plasmon Resonance (SPR); for Tau (h) BTK T316A (Act): target residence time, SPR
Sequence of BTK T316A (Q06187 whole entry T316A): as the sequence (Q06187 whole entry C481S) above, with T316A, S481C counted along it
Outline: as §1

BTK T474I = BTK T474I (Homo sapiens (Human), UniProt Q06187, T474I); test: Binding kinetics measurements (Surface Plasmon Resonance) on BTK T474I; conditions: for Kd: binding affinity by Surface Plasmon Resonance (SPR); for Tau (h) BTK T474I (Act): target residence time, SPR
Sequence of BTK T474I (Q06187 whole entry T474I): as the sequence (Q06187 whole entry C481S) above, with T474I, S481C counted along it
Outline: as §1

BTK T474S = BTK T474S (Homo sapiens (Human), UniProt Q06187, T474S); test: Binding kinetics measurements (Surface Plasmon Resonance) on BTK T474S; conditions: for residence time: SPR binding kinetics, BTK T474S, read-out: Tau (h) BTK T474S (Act), target residence time (converted); for Kd: binding affinity by Surface Plasmon Resonance (SPR)
Sequence of BTK T474S (Q06187 whole entry T474S): as the sequence (Q06187 whole entry C481S) above, with T474S, S481C counted along it
Outline: as §1

[4] = system: wt-TMD8 diffuse large B-cell lymphoma cells; test: Cell proliferation assay wt-TMD8 (ATPlite, 120 hours); type: cell-based; conditions: B-cell; wt-TMD8 cells, 120 hours, ATPlite; read-out: IC50 wt-TMD8
Outline: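 wt-TMD8 DLBCL cells, 1600 per well in RPMI-1640 with 10% FBS, rested ≥5 h then exposed to compound for 120 h at 37° C, 5% CO2. Viability read by ATPlite luminescence; percentage growth calculated relative to start-of-incubation signal and untreated 0.3% DMSO maximum growth.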

Sequence of full-length wt-BTK enzyme (Q06187 whole entry): as the sequence (Q06187 whole entry C481S) above, with S481C counted along it

Structure (SMILES) | IC50 [1] | IC50 [2] | IC50 [3] | IC50 (REC-1 T474I cell lines) | Kd (wt-BTK) | Tau (h) wt-BTK (Act) (wt-BTK) | Kd (BTK C481S) | Tau (h) BTK C418S (Act) (BTK C481S) | Kd (BTK T316A) | Tau (h) BTK T316A (Act) (BTK T316A) | Kd (BTK T474I) | residence time (BTK T474S) | Kd (BTK T474S) | IC50 [4] | Tau (h) BTK T474I (Act) (BTK T474I)
C[C@@H]1CCn2nc(-c3ccc(C(=O)Nc4cc(C(F)(F)F)ccn4)cc3)c3c(N)ncc(c32)/C=C/CCN2CC[C@H]2C(=O)N1 [Example 68] | < 5 nM | < 5 nM | < 100 nM | 500 to 10000 nM | < 5 nM | 4.48 h | < 5 nM | 2.39 h | < 5 nM | 3.79 h | < 2 nM | 3.79 h | < 3 nM | < 100 nM | 
Nc1ncc2c3c1c(-c1ccc(C(=O)Nc4cc(C(F)(F)F)ccn4)cc1)nn3[C@@H]1CC[C@H](C1)NC(=O)CCOCC/C=C/2 [Example 169] | < 5 nM | < 5 nM | < 100 nM | < 100 nM |  | 2.34 h |  | 6.60 h |  | 1.77 h |  | 2.56 h |  | < 100 nM | 3.69 h
C[C@@H]1C[C@@H](C)n2nc(-c3ccc(C(=O)Nc4cc(C(F)(F)F)ccn4)cc3)c3c(N)ncc(c32)/C=C/CCCCCC(=O)N1 [Example 172] | < 5 nM | < 5 nM | < 100 nM | < 100 nM | < 5 nM | 4.83 h | < 5 nM | 4.28 h | < 5 nM | 2.18 h | < 2 nM | 18.9 h | < 3 nM | < 100 nM | 2.35 h
C[C@@H]1CCn2nc(-c3ccc(C(=O)Nc4cc(C(F)(F)F)ccn4)cc3)c3c(N)ncc(c32)/C=C/CCCC(=O)N1 [Example 76] | < 5 nM | < 5 nM | 100 to 1000 nM | 500 to 10000 nM | < 5 nM | 0.97 h | < 5 nM | 1.63 h | < 5 nM |  | 10 to 50 nM and < 5 nM | 1.85 h | < 3 nM | < 100 nM | 
Nc1ncc2c3c1c(-c1ccc(C(=O)Nc4cc(C(F)(F)F)ccn4)cc1)nn3[C@@H]1CCC[C@H](C1)NC(=O)CCCOC/C=C/2 [Example 27] | < 5 nM | < 5 nM | < 100 nM | < 100 nM | < 5 nM | 5.05 h | < 5 nM | 2.04 h | < 5 nM | 3.37 h | < 2 nM | 4.09 h | < 3 nM | < 100 nM | 2.55 h
Nc1ncc2c3c1c(-c1ccc(C(=O)Nc4cc(C(F)(F)F)ccn4)cc1)nn3[C@@H]1CCC[C@H](C1)NC(=O)CCOCC/C=C/2 [Example 26] | < 5 nM | < 5 nM | < 100 nM | < 100 nM | < 5 nM | 5.89 h | < 5 nM | 6.65 h | < 5 nM | 3.22 h | < 2 nM | 1.79 h | < 3 nM | < 100 nM | 5.95 h
C[C@H]1CC(=O)N[C@@H]2CCCC(C2)n2nc(-c3ccc(C(=O)Nc4cc(C(F)(F)F)ccn4)cc3)c3c(N)ncc(c32)/C=C/CCN1 [Example 150] | < 5 nM | < 5 nM | 100 to 1000 nM | 100 to 500 nM | < 5 nM | 2.52 h | < 5 nM | 1.51 h | < 5 nM | 2.48 h | < 2 nM | 1.5 h | < 3 nM | < 100 nM | 
C[C@@H]1CCn2nc(-c3ccc(C(=O)Nc4cc(C#N)ccn4)cc3)c3c(N)ncc(c32)/C=C/CCOCCC(=O)N1 [Example 153] | < 5 nM | < 5 nM | 100 to 1000 nM | 500 to 10000 nM | < 5 nM | 1.29 h | < 5 nM | 1.67 h | < 5 nM |  | < 2 nM | 1.97 h | < 3 nM | < 100 nM | 
COc1ccc(F)cc1C(=O)NCc1ccc(-c2nn3c4c(cnc(N)c24)/C=C/CCCCCC(=O)N[C@H](C)CC3)cc1 [Example 139] | < 5 nM | < 5 nM | 100 to 1000 nM | 100 to 500 nM | < 5 nM | 1.38 h | < 5 nM | 1.36 h | < 5 nM |  | 10 to 50 nM and < 5 nM | 2.11 h | < 3 nM | < 100 nM | 
N#Cc1ccnc(NC(=O)c2ccc(-c3nn4c5c(cnc(N)c35)/C=C/CCOCCC(=O)N[C@@H]3CCC[C@@H]4C3)cc2)c1 [Example 155] | < 5 nM | < 5 nM | < 100 nM | < 100 nM | < 5 nM | 9.97 h | < 5 nM | 2.21 h | < 5 nM | 2.91 h | < 2 nM | 3.8 h | < 3 nM | < 100 nM | 2.63 h
Nc1ncc2c3c1c(-c1ccc(C(=O)Nc4cc(C(F)(F)F)ccn4)cc1)nn3[C@@H]1CCC[C@H](C1)NC(=O)CCCC/C=C/2 [Example 48] | < 5 nM | < 5 nM | < 100 nM | < 100 nM | < 5 nM | 7.37 h | < 5 nM | 4.27 h | < 5 nM | 3.89 h | < 2 nM | 4.18 h | < 3 nM | < 100 nM | 2.01 h
